Consider 35 compounds from patent publication US8071797B2 (priority 2008, dated 2011).

The structures appear in SMILES notation. pIC50: −log10 of the molar value.

One may read the pIC50 as the negative decadic logarithm of the IC50, by convention in mol/L. A low value points to a large IC50.

For this experiment, the target named is T1, HCV polymerase (NS5B570n-Con1) (Hepatitis C virus genotype 1b, UniProt Q9WMX2).
T1 construct: contains a 21 amino acid deletion at the C-terminus relative to the full-length HCV polymerase; 6-histidine (N); made in house; host or cells: E. coli BL21 (DE) pLysS
The experiment can be described thus: HCV NS5B RNA polymerase activity assay. It counts as biochemical, HCV Con1 strain. To be noted: IC50 NS5B polymerase assay, Table I. How it is done:
The enzymatic activity of HCV polymerase (NS5B570n-Con1) was measured as the incorporation of radiolabeled nucleotide monophosphates into acid insoluble RNA products. Unincorporated radiolabeled substrate was removed by filtration and scintillant was added to the washed and dried filter plate containing radiolabeled RNA product. The amount of RNA product generated by NS5B570-Con1 at the end of the reaction was directly proportional to the amount of light emitted by the scintillant.
The N-terminal 6-histidine tagged HCV polymerase, derived from HCV Con1 strain, genotype 1b (NS5B570n-Con1) contains a 21 amino acid deletion at the C-terminus relative to the full-length HCV polymerase and was purified from E. coli strain BL21 (DE) pLysS. The construct, containing the coding sequence of HCV NS5B Con1 (GenBank accession number AJ242654) was inserted into the plasmid construct pETI 7b, downstream of a T7 promoter expression cassette and transformed into E. coli. A single colony was grown overnight as a starter culture and later used inoculate 10 L of LB media supplemented with 100 μg/mL ampicillin at 37° C. Protein expression was induced by the addition of 0.25 mM isopropyl-β-D-thiogalactopyranoside (IPTG) when optical density at […] of the culture was between 0.6 and 0.8 and cells were harvested after 16 to 18 h at 30° C. NS5B570n-Con1 was purified to homogeneity using a three-step protocol including subsequent column chromatography on Ni-NTA, SP-Sepharose HP and Superdex 75 resins.
Each 50 μl enzymatic reaction contained 20 nM RNA template derived from the complementary sequence of the Internal Ribosome Entry Site (cIRES), 20 nM NS5B570n-Con1 enzyme, 0.5 μCi of tritiated UTP (Perkin Elmer catalog no. TRK-412; specific activity: 30 to 60 Ci/mmol; stock solution concentration from 7.5×10^-5 M to 20.6×10^-6 M), 1 μM each ATP, CTP, and GTP, 40 mM Tris-HCl pH 8.0, 40 mM NaCl, 4 mM DTT (dithiothreitol), 4 mM MgCl2, and 5 μl of compound serial diluted in DMSO. Reaction mixtures were assembled in 96-well filter plates (cat #MADVN0B, Millipore Co.) and incubated for 2 h at 30° C. Reactions were stopped by addition of 10% final (v/v) trichloroacetic acid and incubated for 40 min at 4° C. Reactions were filtered, washed with 8 reaction volumes of 10% (v/v) trichloroacetic acetic acid, 4 reaction volumes of 70% (v/v) ethanol, air dried, and 25 μl of scintillant (Microscint 20, Perkin-Elmer) was added to each reaction well.
The amount of light emitted from the scintillant was converted to counts per minute (CPM) on a Topcount® plate reader (Perkin-Elmer, Energy Range: Low, Efficiency Mode Normal, Count Time: 1 min, Background Subtract: none, Cross talk reduction: Off).
Data was analyzed in Excel® (Microsoft®) and ActivityBase® (idbsg). The reaction in the absence of enzyme was used to determine the background signal, which was subtracted from the enzymatic reactions. Positive control reactions were performed in the absence of compound, from which the background corrected activity was set as 100% polymerase activity. All data was expressed as a percentage of the positive control. The compound concentration at which the enzyme-catalyzed rate of RNA synthesis was reduced by 50% (IC50) was calculated by fitting
[formula] equation (t) to the data.where “Y” corresponds to the relative enzyme activity (in %), “% Min” is the residual relative activity at saturating compound concentration, “% Max” is the relative maximum enzymatic activity, “X” corresponds to the compound concentration, and “S” is the Hill coefficient (or slope).
`CNC(=O)c1c(-c2ccc(Oc3ccccc3F)cc2)oc2cc(N(C)S(C)(=O)=O)c(OC)cc12` [Compound I-36]: the pIC50 is 7.32.
In turn, `CNC(=O)c1c(-c2ccc(Oc3ccc(F)cc3)cc2)oc2cc(N(CC3CCOC3)S(C)(=O)=O)c(C3CC3)cc12` (centres unmarked) [Compound I-60] gave a pIC50 of 6.94.
With `CNC(=O)c1c(-c2ccc(Oc3ccccc3)cc2)oc2cc(-c3ccc[nH]3)c(C3CC3)cc12` [Compound I-89, 5-Cyclopropyl-2-(4-phenoxy-phenyl)-6-(1H-pyrrol-2-yl)-benzofuran-3-carboxylic acid methylamide] the figure was 6.14; with `CNC(=O)c1c(-c2ccc(Oc3ccc(F)c(F)c3)cc2)oc2cc(N(CCO)S(C)(=O)=O)c(OC(C)C)cc12` [Compound I-50], 6.58; with `CNC(=O)c1c(-c2ccc(Oc3ccc(F)cc3)cc2)oc2cc(N(CC3COC(=O)N3)S(C)(=O)=O)c(C3CC3)cc12` (centres unmarked) [Compound I-108], 7.59.
With `CNC(=O)c1c(-c2ccc(Oc3ccc(F)cc3)cc2)oc2cc(N(CCCS(N)(=O)=O)S(C)(=O)=O)c(C3CC3)cc12` [Compound I-118] the figure was 8.15; with `CNC(=O)c1c(-c2ccc(Oc3ccc(F)cc3F)cc2)oc2cc(N(CCO)S(C)(=O)=O)c(C3CC3)cc12` [Compound I-58], 7.07.
Consider `CNC(=O)c1c(-c2ccc(Nc3cccc(OC)c3)cc2)oc2cc(N(CCO)S(C)(=O)=O)c(OC)cc12` [Compound I-7], for which the pIC50 is 6.87.
In turn, `CNC(=O)c1c(-c2ccc(Oc3ccc(F)cc3)nc2)oc2cc(N(CCO)S(C)(=O)=O)c(OC)cc12` [Compound I-125, 2-[6-(4-Fluoro-phenoxy)-pyridin-3-yl]-6-[(2-hydroxy-ethyl)-methanesulfonyl-amino]-5-methoxy-benzofuran-3-carboxylic acid methylamide] showed a pIC50 of 6.31.
As for `CNC(=O)c1c(-c2ccc(Oc3ccccn3)cc2)oc2cc(N(CCO)S(C)(=O)=O)c(OC)cc12` [Compound I-127, 6-[(2-Hydroxy-ethyl)-methanesulfonyl-amino]-5-methoxy-2-[4-(pyridin-2-yloxy)-phenyl]-benzofuran-3-carboxylic acid methylamide], the figure is 6.21; as for `CCN(c1cc2oc(-c3ccc(Nc4ccccc4F)cc3)c(C(=O)NC)c2cc1OC)S(C)(=O)=O` [Compound I-18], 8.30; as for `CNC(=O)c1c(-c2ccc(Oc3ccc(F)cc3)cc2)oc2cc(N(C3CNC3)S(C)(=O)=O)c(C3CC3)cc12` [Compound I-75], 6.52.
With `CNC(=O)c1c(-c2ccc(Oc3ccc(F)cc3)cc2)oc2cc(C3CCCN3S(C)(=O)=O)c(OC)cc12` (centres unmarked) [Compound I-112, 2-[4-(4-Fluoro-phenoxy)-phenyl]-6-(1-methanesulfonyl-pyrrolidin-2-yl)-5-methoxy-benzofuran-3-carboxylic acid methylamide] the figure was 6.46.
With `CNC(=O)c1c(-c2ccc(Oc3ccccc3)cc2)oc2cc(-c3c(C)noc3C)c(C3CC3)cc12` [Compound I-85, 5-Cyclopropyl-6-(3,5-dimethyl-isoxazol-4-yl)-2-(4-phenoxy-phenyl)-benzofuran-3-carboxylic acid methylamide] the figure was 6.46; with `CCN(c1cc2oc(-c3ccc(Oc4ccc(F)cc4)cc3)c(C(=O)NC)c2cc1C1CC1)S(C)(=O)=O` [Compound I-42], 6.84.
`CNC(=O)c1c(-c2ccc(Oc3ccccc3F)cc2)oc2cc(N(CCO)S(C)(=O)=O)c(C3CC3)cc12` [Compound I-61]: the pIC50 is 7.46.
With `CNC(=O)c1c(-c2ccc(Oc3ccc(F)cc3)cc2)oc2cc(N(Cc3ccncc3)S(C)(=O)=O)c(C3CC3)cc12` [Compound I-71] the figure was 8.05.
As for `CNC(=O)c1c(-c2ccc(Oc3ccc(F)cc3)cc2)oc2cc(N(C3CCC(N)CC3)S(C)(=O)=O)c(C3CC3)cc12` (centres unmarked) [Compound I-98, 6-[(4-Amino-cyclohexyl)-methanesulfonyl-amino]-5-cyclopropyl-2-[4-(4-fluoro-phenoxy)-phenyl]-benzofuran-3-carboxylic acid methylamide], the figure is 7.36.
With `CNC(=O)c1c(-c2ccc(Oc3ccccc3F)cc2)oc2cc(N(C)S(C)(=O)=O)c(C)cc12` [Compound I-59, 2-[4-(2-Fluoro-phenoxy)-phenyl]-6-(methanesulfonyl-methyl-amino)-5-methyl-benzofuran-3-carboxylic acid methylamide] the figure was 7.03; with `CNC(=O)c1c(-c2ccc(Oc3ccc(F)cc3)cc2)oc2cc(N(CCCO)S(C)(=O)=O)c(C3CC3)cc12` [Compound I-106], 7.74; with `CNC(=O)c1c(-c2ccc(Oc3ccc(F)cc3)cc2)oc2cc(N(C3CCOC3)S(C)(=O)=O)c(C3CC3)cc12` (centres unmarked) [Compound I-84], 6.81.
In turn, `CNC(=O)c1c(-c2ccc(Oc3ccccc3)cc2)oc2cc(C(C)=O)c(C3CC3)cc12` [Compound I-86] gave a pIC50 of 6.44.
Compound `CNC(=O)c1c(-c2ccc(Oc3ccc(F)cc3)cc2)oc2cc(N(CCO)S(C)(=O)=O)c(C)cc12` [Compound I-55] showed a pIC50 of 7.36.
Compound `CNC(=O)c1c(-c2ccc(Oc3ccccc3)cc2)oc2cc(C3CCCN3)c(C3CC3)cc12` (centres unmarked) [Compound I-90, 5-5-Cyclopropyl-2-(4-phenoxy-phenyl)-6-pyrrolidin-2-yl-benzofuran-3-carboxylic acid methylamideyclopropyl-2-(4-phenoxy-phenyl)-6-pyrrolidin-2-yl-benzofuran-3-carboxylic acid methylamide] gave a pIC50 of 6.60.
With `CNC(=O)c1c(-c2ccc(Oc3ccc(F)cc3)cc2)oc2cc(N(C3CCNCC3)S(C)(=O)=O)c(C3CC3)cc12` [Compound I-76] the figure was 6.42; with `CNC(=O)c1c(-c2ccc(Nc3ccccc3)cc2)oc2cc(N(CCO)S(C)(=O)=O)c(OC(C)C)cc12` [Compound I-28, 6-[(2-Hydroxy-ethyl)-methanesulfonyl-amino]-5-isopropoxy-2-(4-phenylamino-phenyl)-benzofuran-3-carboxylic acid methylamide], 7.38; with `CNC(=O)c1c(-c2ccc(Nc3cccc(F)c3F)cc2)oc2cc(N(CCO)S(C)(=O)=O)c(OC)cc12` [Compound I-21], 7.23.
As for `CNC(=O)c1c(-c2ccc(Nc3ccc(F)cn3)cc2)oc2cc(N(CCO)S(C)(=O)=O)c(OC)cc12` [Compound I-124], the figure is 6.71; as for `CNC(=O)c1c(-c2ccc(Nc3cc(F)cc(F)c3)cc2)oc2cc(N(CCO)S(C)(=O)=O)c(OC)cc12` [Compound I-16], 6.76; as for `CNC(=O)c1c(-c2ccc(Oc3ccc(F)cc3)cc2)oc2cc(N(CCNS(C)(=O)=O)S(C)(=O)=O)c(C3CC3)cc12` [Compound I-80], 6.75.
As for `CNC(=O)c1c(-c2ccc(Nc3c(F)cccc3F)cc2)oc2cc(N(CCO)S(C)(=O)=O)c(OC)cc12` [Compound I-25], the figure is 6.91; as for `CNC(=O)c1c(-c2ccc(Oc3ccc(F)cc3)cc2)oc2cc(N(CCCS(C)(=O)=O)S(C)(=O)=O)c(C3CC3)cc12` [Compound I-114], 7.68; as for `CNC(=O)c1c(-c2ccc(Nc3ccccc3F)cc2)oc2cc(N(CCO)S(C)(=O)=O)c(OC(C)C)cc12` [Compound I-34], 7.19.
The compound `CNC(=O)c1c(-c2ccc(Nc3ccc(Cl)cc3)cc2)oc2cc(N(CCO)S(C)(=O)=O)c(OC)cc12` [Compound I-3] showed a pIC50 of 6.67.
As for `CNC(=O)c1c(-c2ccc(Nc3ccc(F)c(Cl)c3)cc2)oc2cc(N(CCO)S(C)(=O)=O)c(OC)cc12` [Compound I-15], the figure is 7.09.
